Laboratory results published in publication PMC10258794, “To Fold or Not to Fold: Diastereomeric Optimization of an α-Helical Antimicrobial Peptide” (Journal of Medicinal Chemistry, 2023).
Converted amounts (≈) assume the structure as drawn. Read-outs that look alike come from different tables or passages of the source.

Legend:
[1] = EYPC vesicle leakage assay; format: biochemical; settings: 10 μg/mL of compound; 10 mM TRIS, 107 mM NaCl, pH 7.4
Procedure: 5(6)-carboxyfluorescein (CF) was purchased from Sigma. EYPC, EYPG, and a Mini-Extruder were purchased from Avanti Polar Lipids. Egg PC or Egg PG thin lipid layers were prepared by evaporating a solution of 100 mg of EYPC or EYPG in 4 mL of MeOH/CHCl3 (1:1) on a rotary evaporator at room temperature and then dried in vacuo overnight. […] Extravesicular components were removed by gel filtration (Sephadex G-50) with 10 mM TRIS, 107 mM NaCl, pH 7.4 buffer. Final conditions: ∼2.5 mM PC or PG; inside: 50 mM CF, 10 mM TRIS, 10 mM NaCl, pH 7.4 buffer; outside: 10 mM TRIS, 107 mM NaCl, pH 7.4. […] The CF efflux was monitored at λem 517 nm (λex 492 nm) as a function of time after addition of the desired volume of peptide from 2 mg/mL stock in mQ water at t = 45 s, 10 and 50 μg/mL were monitored for both EYPC and EYPG. […] Fluorescence intensities were then normalized to the maximal emission intensity using I(t) = (It – I0)/(I∞ – I0) where I0 = It at peptide addition, I∞ = It at saturation of lysis.

E. coli W3110 = test system: E. coli W3110
Outline: (§1)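 A colony was grown overnight in LB at 37 °C, diluted in MH medium pH 7.4 to OD600 0.022 and added to 1/2 serial dilutions of compound (final about 5 × 10^5 CFU).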

P. aeruginosa PAO1 = test system: P. aeruginosa PAO1
Outline: as §1

A. baumannii ATCC19606 = test system: A. baumannii ATCC19606
Outline: as §1

[2] = test system: Pseudomonas aeruginosa, Klebsiella pneumoniae, Acinetobacter baumannii, Escherichia coli, and methicillin-resistant Staphylococcus aureus; settings: summary of Table 1
Outline: as §1

Staphylococcus epidermis = assay: MIC broth microdilution, Staphylococcus epidermis; format: cell-based; settings: pH 7.4
Procedure: (§2) Antimicrobial activity was determined for all peptides on E. coli W3110, P. aeruginosa PAO1, A. baumannii ATCC19606, K. pneumoniae NCTC418, and methicillin-resistant S. aureus COL and for selected peptides on P. aeruginosa PA14 and the polymyxin B-resistant derivatives PA14 4.13, PA14 4.18, and PA14 2P4 as well as the clinical isolates ZEM-1A and ZEM9A, K. pneumoniae OXA-48, Enterobacter cloacae, Stenotrophomonas maltophilia, B. cenocepacia, and Staphylococus epidermis. To determine the MIC, the broth microdilution method was used.[75] A single bacterial colony was grown in LB medium overnight at 37 °C and 180 rpm shaking. The compounds were prepared as stock solutions of 2 mg/mL in sterilized milliQ deionized water, added to the first well of 96-well sterile, polypropylene round-bottom microtiter plates (TPP, untreated, Corning Incorporated, Kennebunk, USA), and diluted serially by 1/2. […] The bacterial inoculum was prepared by measuring the absorbance of the overnight culture, which was diluted to concentration of the bacteria was quantified by measuring absorbance at 600 nm and diluted to an OD600 of 0.022 in MH medium pH 7.4 (Sigma-Aldrich, Buchs, Switzerland). The sample solutions (150 μL) were mixed with 4 μL of diluted bacterial suspension with a final inoculation of about 5 × 10^5 CFU. For each test, two columns of the plate were kept for sterility control (MH medium only) and growth control (MH medium with bacterial inoculum, no compound). […] The plates were incubated at 37 °C for 16–20 h under static conditions. 15 μL of 3-(4,5-dimethylthiazol-2-yl)-2,5-diphenyltetrazolium bromide (MTT)[76] (1 mg/mL in sterilized milliQ deionized water) was added to each well, and the plates were incubated at room temperature until MTT staining was completed. The MIC was defined as the lowest concentration of the dendrimer that inhibits the visible growth of the tested bacteria (yellow) with the unaided eye.

HEK293 cells = assay: Alamar blue cytotoxicity, HEK293; format: cell-based, human; settings: 24 h, mean ± SD, n = 3, read-out: Toxicity on HEK293 cells
Procedure: (§3) The A549 human lung adenocarcinoma cells are derived from a patient and were kindly given to us by Dr. Georgia Konstatinidou (Pharmacology Institute, Bern University). HEK293T cells were obtained from ATCC (CRL-11268). A549 and HEK293 were cultured in an incubator at 37 °C with 5% CO2 in RPMI-1640 (Gibco) and DMEM (Gibco) containing 10% fetal bovine serum (Thermo Fisher), 100 I.U./mL penicillin, and 100 μg/mL streptomycin (Gibco).
(§4) The viability of the cells was assessed with an AlamarBlue assay (ThermoFisher). Cells were seeded into 96-well plates, 4000 cells/well (HEK293) and 8000 cells/well (A549), the day before the experiment. Cells were then treated with the increasing concentration of the compound and incubated for 24 h at 37 °C in the presence of 5% CO2. The next day, the medium was removed and replaced by a 10% AlamarBlue solution in full growth medium (DMEM or RPMI-1640). The cells were incubated for 3–5 h at 37 °C with 5% CO2 in a humidified atmosphere. The fluorescence was then measured on a Tecan Infinite M1000 Pro plate reader at λex 560 nm and λem 590 nm. The value was normalized according to the untreated cells.

A549 cells = assay: Alamar blue cytotoxicity, A549; format: cell-based, human; settings: 24 h, mean ± SD, n = 3, read-out: Toxicity on A549 lung cancern cells
Procedure: as §3, §4

[3] = test system: Stenotrophomonas maltophilia; assay: microbe, parasite or virus in culture; format: cell-based; settings: pH 7.4
Procedure: as §2

P. aeruginosa ZEM9A = assay: microbe, parasite or virus in culture; format: cell-based, Pseudomonas aeruginosa; settings: pH 7.4
Procedure: as §2

S. aureus Newman = settings: for MIC S. aureus Newman: MH broth pH 7.4, 16–20 h, 37 °C; for MIC S. aureus Newmann: supplementary CSV
K. pneumoniae Oxa-48 = assay: MIC broth microdilution, K. pneumoniae Oxa-48; format: cell-based, Klebsiella pneumoniae; settings: MDR strain; MH broth pH 7.4, 16–20 h, 37 °C
Procedure: as §2

P. aeruginosa ZEM-1A = assay: microbe, parasite or virus in culture; settings: pH 7.4
Outline: as §1

Burkolderia cenocepacia = assay: microbe, parasite or virus in culture; settings: for MIC Burkolderia cenocepacia: MDR strain, MH broth pH 7.4, 16–20 h, 37 °C; for MIC B. cenocepacia: supplementary CSV
PA14 4.13 (phoQ) = assay: microbe, parasite or virus in culture; settings: supplementary CSV
Outline: as §1

Enterobacter cloacae = assay: microbe, parasite or virus in culture; settings: pH 7.4
Outline: as §1

PA14 4.18 (pmrB) = assay: microbe, parasite or virus in culture; settings: supplementary CSV
Outline: as §1

P. aeruginosa PA14 = assay: microbe, parasite or virus in culture; settings: for MIC PA14: MH broth pH 7.4, 16–20 h, 37 °C; for MIC P. aeruginosa PA14: supplementary CSV
Outline: as §1

PA14 2P4 (pmrB) = assay: microbe, parasite or virus in culture; settings: supplementary CSV
Outline: as §1

K. pneumoniae NCTC418 = test system: K. pneumoniae NCTC418
Outline: as §1

S. aureus COL MRSA = settings: for MIC S. aureus COL MRSA: MH broth pH 7.4, 16–20 h, 37 °C; for MIC S. aureus COL: supplementary CSV, ranges of Table 1 given as one number
Outline: as §1

[4] = MH broth pH 7.4, 16–20 h, 37 °C
[5] = supplementary CSV, ranges of Table 1 given as one number

Row | SMILES | EYPC vesicle leakage (%) [1] | MIC E. coli W3110 (E. coli W3110; [4]) | MIC E. coli W3110 (E. coli W3110; [5]) | MIC P. aeruginosa PAO1 (P. aeruginosa PAO1; [4]) | MIC P. aeruginosa PAO1 (P. aeruginosa PAO1; [5]) | MIC A. baumannii ATCC19606 (A. baumannii ATCC19606; [4]) | MIC A. baumannii ATCC19606 (A. baumannii ATCC19606; [5]) | MIC, span over E. coli, P. aeruginosa, and A. baumannii [2] | MIC Staphylococcus epidermis (Staphylococcus epidermis) | IC50 (HEK293 cells) | IC50 (A549 cells) | MIC Stenotrophomonas maltophilia [3] | MIC ZEM9A (P. aeruginosa ZEM9A) | MIC S. aureus Newman (S. aureus Newman) | MIC S. aureus Newmann (S. aureus Newman) | MIC K. pneumoniae Oxa-48 (K. pneumoniae Oxa-48) | MIC ZEM-1A (P. aeruginosa ZEM-1A) | MIC Burkolderia cenocepacia (Burkolderia cenocepacia) | MIC B. cenocepacia (Burkolderia cenocepacia) | MIC P. aeruginosa PA14 4.13 (PA14 4.13 (phoQ)) | further results
1 | CC(C)C[C@H](NC(=O)[C@H](CC(C)C)NC(=O)[C@H](CC(C)C)NC(=O)[C@@H](CCCCN)NC(=O)[C@@H](CC(C)C)NC(=O)[C@@H](CC(C)C)NC(=O)[C@@H](CCCCN)NC(=O)[C@H](CC(C)C)NC(=O)[C@H](CC(C)C)NC(=O)[C@H](CCCCN)NC(=O)[C@@H](N)CCCCN)C(N)=O [HP13, KKLLkllkLLL] | 8% | 4 to 8 µg/mL | 6 µg/mL (≈ 4.54 µM) | 16 to 32 µg/mL | 24 µg/mL (≈ 18.2 µM) | 16 to 32 µg/mL | 24 µg/mL (≈ 18.2 µM) | 4 to 32 µg/mL | – | – | – | – | – | – | – | – | – | – | – | – | –
2 | CC(C)C[C@H](NC(=O)[C@H](CC(C)C)NC(=O)[C@@H](CC(C)C)NC(=O)[C@H](CCCCN)NC(=O)[C@@H](CC(C)C)NC(=O)[C@@H](CC(C)C)NC(=O)[C@H](CCCCN)NC(=O)[C@@H](CC(C)C)NC(=O)[C@@H](CC(C)C)NC(=O)[C@H](CCCCN)NC(=O)[C@@H](N)CCCCN)C(N)=O [HP25, KKllKllKlLL] | 4% | 8 to 16 µg/mL | 12 µg/mL (≈ 9.08 µM) | 8 to 16 µg/mL | 12 µg/mL (≈ 9.08 µM) | 32 µg/mL (≈ 24.2 µM) | 32 µg/mL (≈ 24.2 µM) | 4 to 32 µg/mL | – | – | – | – | – | – | – | – | – | – | – | – | –
3 | CC(C)C[C@H](NC(=O)[C@H](CC(C)C)NC(=O)[C@H](CC(C)C)NC(=O)[C@H](CCCCN)NC(=O)[C@H](CC(C)C)NC(=O)[C@H](CC(C)C)NC(=O)[C@H](CCCCN)NC(=O)[C@H](CC(C)C)NC(=O)[C@H](CC(C)C)NC(=O)[C@H](CCCCN)NC(=O)[C@@H](N)CCCCN)C(N)=O [ln65] | – | 4 µg/mL (≈ 3.03 µM) | – | 2 to 4 µg/mL | 3 µg/mL (≈ 2.27 µM) | 2 to 4 µg/mL | 3 µg/mL (≈ 2.27 µM) | – | 2 µg/mL (≈ 1.51 µM) | 27 ± 5.4 µM | 20 ± 0.9 µM | 2 µg/mL (≈ 1.51 µM) | 4 µg/mL (≈ 3.03 µM) | 2 µg/mL (≈ 1.51 µM) | 2 µg/mL (≈ 1.51 µM) | 2 µg/mL (≈ 1.51 µM) | 4 µg/mL (≈ 3.03 µM) | >64 µg/mL | > 64 µg/mL | 4 µg/mL (≈ 3.03 µM) | MIC Enterobacter cloacae (Enterobacter cloacae): 2 µg/mL (≈ 1.51 µM); MIC P. aeruginosa PA14 4.18 (PA14 4.18 (pmrB)): 32 µg/mL (≈ 24.2 µM); MIC PA14 (P. aeruginosa PA14): 2 to 4 µg/mL; MIC P. aeruginosa PA14 (P. aeruginosa PA14): 3 µg/mL (≈ 2.27 µM); MIC P. aeruginosaPA14 2P4 (PA14 2P4 (pmrB)): 32 µg/mL (≈ 24.2 µM); MIC K. pneumoniae NCTC418 (K. pneumoniae NCTC418; [4]): 4 µg/mL (≈ 3.03 µM); MIC K. pneumoniae NCTC418 (K. pneumoniae NCTC418; [5]): 4 µg/mL (≈ 3.03 µM); MIC S. aureus COL MRSA (S. aureus COL MRSA): 4 µg/mL (≈ 3.03 µM); MIC S. aureus COL (S. aureus COL MRSA): 4 µg/mL (≈ 3.03 µM)
4 | CC(C)C[C@H](NC(=O)[C@H](CC(C)C)NC(=O)[C@H](CC(C)C)NC(=O)[C@@H](CCCCN)NC(=O)[C@H](CC(C)C)NC(=O)[C@H](CC(C)C)NC(=O)[C@@H](CCCCN)NC(=O)[C@H](CC(C)C)NC(=O)[C@H](CC(C)C)NC(=O)[C@@H](CCCCN)NC(=O)[C@H](N)CCCCN)C(N)=O [ln69, kkLLkLLkLLL] | – | 4 µg/mL (≈ 3.03 µM) | – | 8 µg/mL (≈ 6.05 µM) | 8 µg/mL (≈ 6.05 µM) | 2 to 4 µg/mL | 3 µg/mL (≈ 2.27 µM) | – | 4 µg/mL (≈ 3.03 µM) | 45 ± 8.9 µM | 21 ± 3.3 µM | 2 µg/mL (≈ 1.51 µM) | 8 µg/mL (≈ 6.05 µM) | 8 µg/mL (≈ 6.05 µM) | 8 µg/mL (≈ 6.05 µM) | 4 µg/mL (≈ 3.03 µM) | 2 µg/mL (≈ 1.51 µM) | >64 µg/mL | > 64 µg/mL | 4 µg/mL (≈ 3.03 µM) | MIC Enterobacter cloacae (Enterobacter cloacae): 4 µg/mL (≈ 3.03 µM); MIC P. aeruginosa PA14 4.18 (PA14 4.18 (pmrB)): 16 µg/mL (≈ 12.1 µM); MIC PA14 (P. aeruginosa PA14): 2 µg/mL (≈ 1.51 µM); MIC P. aeruginosa PA14 (P. aeruginosa PA14): 2 µg/mL (≈ 1.51 µM); MIC P. aeruginosaPA14 2P4 (PA14 2P4 (pmrB)): 32 µg/mL (≈ 24.2 µM); MIC K. pneumoniae NCTC418 (K. pneumoniae NCTC418; [4]): 8 µg/mL (≈ 6.05 µM); MIC K. pneumoniae NCTC418 (K. pneumoniae NCTC418; [5]): 8 µg/mL (≈ 6.05 µM); MIC S. aureus COL MRSA (S. aureus COL MRSA): 16 µg/mL (≈ 12.1 µM); MIC S. aureus COL (S. aureus COL MRSA): 16 µg/mL (≈ 12.1 µM)
